# Measurements from patent US6818780B2, “P-hydroxyphenyl propionic acid derivatives as antiproliferative agents” (Consejo Superior de Investigaciones Cientificas, priority 2000, dated 2004).
# Test system: murine splenocytes
# Assay: Test of lymphocyte proliferation: proliferation of murine splenocytes (tritiated thymidine incorporation)
# Assay type: cell-based, Bal b/c mice
# Settings: for Proliferation of murine splenocytes, mitogen Con A 2.5 μg/ml (cpm ± DS) / Proliferation of murine splenocytes, mitogen LPS 10 μg/ml (cpm ± DS) / Proliferation of murine splenocytes, mitogen PHA 50 μg/ml (cpm ± DS) / Proliferation of murine splenocytes, mitogen a CD3 20 μg/ml (cpm ± DS): 72 h incubation
# Experimental: Proliferation of Murine Splenocytes. Material and Methods
# Test of Lymphocyte Proliferation
# Culture medium: DMEM+penicillin 50 UI/ml+streptomycin 50 µg/ml+glutamine 2 mM+10% foetal calf serum (complete medium) (FLOW).
# Bal b/c mice were used, male, aged 6-8 weeks (IFFA-CREDO).
# The cell “pellet” is resuspended in complete medium at a concentration of 4×10^6 cells/ml
# In a dish with 96 flat-bottom wells, seriated dilutions are made of the mitogen problem sample with or without “lactone” in a volume of […] in complete medium to which […] 2ME have been added. All the determinations are made in triplicate.
# 100 μl of the cell suspension are then added, leaving a final volume of 200 μl.
# The dish is incubated in a stove at 37° C., 5% CO2 for 66 h.
# Following that incubation period, 1 μCi of tritiated thymidine is added to each well.
# The dish is again incubated for 6 h.
# Once that new incubation period has ended, the dish is processed in a Skatron Harvester, using special Wathman filter paper for this.
# The cpm are determined in a liquid scintillation counter.
# Negative control: cells in the presence of complete culture medium.
# Positive control: cells in the presence of some mitogen.
# Arithmetic mean of cpm±standard deviation (1)
# The statistical significance is determined by the Student t method.
# The results are summarised in the following tables (the cpm are stated following a pulse of tritiated thymidine. The samples of splenocytes were cultivated for 72 h in the presence of mitogen and lactone at the stated concentrations).
# [1] = murine splenocytes, 72 h with mitogen and lactone
smiles,measurement,setting,value
C=C1C(=O)OC(CCc2ccc(OC)cc2)C1C (centres unmarked) [lactone],"Proliferation of murine splenocytes, mitogen Con A 2.5 μg/ml (cpm ± DS)",Lactone 0.75 μg/ml,"131,523 cpm"
same,"Proliferation of murine splenocytes, mitogen Con A 2.5 μg/ml (cpm ± DS)",Lactone 1.5 μg/ml,"150,400 cpm"
same,"Proliferation of murine splenocytes, mitogen Con A 2.5 μg/ml (cpm ± DS)",Lactone 3 μg/ml,"92,600 ± 100 cpm"
same,"Proliferation of murine splenocytes, mitogen Con A 2.5 μg/ml (cpm ± DS)",Lactone 6 μg/ml,"78,200 ± 725 cpm"
same,"Proliferation of murine splenocytes, mitogen Con A 2.5 μg/ml (cpm ± DS)",Lactone 12 μg/ml,370 ± 20 cpm
same,"Proliferation of murine splenocytes, mitogen Con A 2.5 μg/ml (cpm ± DS)",Lactone 25 μg/ml,244 ± 15 cpm
same,"Proliferation of murine splenocytes, mitogen LPS 10 μg/ml (cpm ± DS)",Lactone 25 μg/ml,"3,200 ± 400 cpm"
same,"Proliferation of murine splenocytes, mitogen PHA 50 μg/ml (cpm ± DS)",Lactone 25 μg/ml,"21,000 cpm"
same,"Proliferation of murine splenocytes, mitogen a CD3 20 μg/ml (cpm ± DS)",Lactone 25 μg/ml,"5,600 ± 300 cpm"
same,"Proliferation of murine splenocytes, mitogen Con A 2.5 μg/ml (cpm ± DS)",Lactone 50 μg/ml,190 ± 10 cpm
same,"Proliferation of murine splenocytes, mitogen LPS 10 μg/ml (cpm ± DS)",Lactone 50 μg/ml,"2,700 ± 120 cpm"
same,"Proliferation of murine splenocytes, mitogen PHA 50 μg/ml (cpm ± DS)",Lactone 50 μg/ml,"19,000 cpm"
same,"Proliferation of murine splenocytes, mitogen a CD3 20 μg/ml (cpm ± DS)",Lactone 50 μg/ml,"1,235 ± 200 cpm"
same,"Proliferation of murine splenocytes, mitogen Con A 2.5 μg/ml (cpm ± DS)",Lactone 100 μg/ml,147 ± 10 cpm
same,"Proliferation of murine splenocytes, mitogen LPS 10 μg/ml (cpm ± DS)",Lactone 100 μg/ml,614 ± 35 cpm
same,"Proliferation of murine splenocytes, mitogen PHA 50 μg/ml (cpm ± DS)",Lactone 100 μg/ml,"19,500 cpm"
same,"Proliferation of murine splenocytes, mitogen a CD3 20 μg/ml (cpm ± DS)",Lactone 100 μg/ml,285 ± 20 cpm
same,"Inhibition of proliferation induced by ConA, antiCD3 and LPS",[1],clearly demonstrated its capacity for inhibiting proliferation
same,Inhibition of proliferation induced by PHA,[1],but not that induced by PHA
same,Proliferative effect per se on murine splenocytes,"no mitogen, range 100-0.75 μg/ml, sample dissolved in DMSO at 40.0 mg/ml",No effect
